For one data set, the system named is AML. The data set can be described thus: Treatment of subjects with AML in remission (Example 1). Type of data set: in vivo, human. To be noted: 3-aminobenzamide s.c. (50 mg/day) with histamine dihydrochloride, IL-2, cytarabine and thioguanine, 21-day cycles. As for the experimental part: Subjects with AML in a first, second, subsequent or complete remission are treated in 21-day courses with IL-2 (35-50 μg (equivalent to 6.3-9×10^5 IU) subcutaneously (s.c.). twice daily), repeated with three to six-week intermissions and continued until relapse. In cycle #1, patients receive three weeks of low dose chemotherapy consisting of 16 mg/m^2/day cytarabine, and 40 mg/day thioguanine. Concomitantly, patients are injected subcutaneously with an effective amount of a pharmaceutically acceptable form of a PARP-1 inhibitor, 3-aminobenzamide. Additionally, the patients are administered an effective amount of a pharmaceutically acceptable form of histamine dihydrochloride to boost circulating histamine to a beneficial level twice daily (above 0.2 μmole/L). Histamine levels can be continually boosted to beneficial levels by administering histamine dihydrochloride by injection at 0.2 to 2.0 mg or 3-10 μg/kg twice daily in a pharmaceutically acceptable form of a ROM inhibitory compound during the IL-2 treatment. Thereafter, the subjects are allowed to rest for three to six weeks. After the rest period at the end of the first cycle (cycle #1), the second cycle (cycle #2) is initiated. […]

Data set [1] relates to neoplastic disease and/or viral infection. The data set can be described thus: Treatment of subjects with neoplastic disease and/or viral infection (Example 4). It counts as in vivo, human. To be noted: CEP-6800 250 mg/day with IL-2, interferon-α and histamine, repeated every 4-6 weeks. On the procedure: Subjects in need of enhanced cytotoxic lymphocyte activity, because of a neoplastic disease, and/or a viral infection such as hepatitis B (HBV), hepatitis C(HCV), human immunodeficiency virus (HIV), human papilloma virus (HPV) or herpes simplex virus (HSV) type 1 or 2, or other viral infections, are administered 250 mg/day of CEP-6800, a PARP-1 inhibitor. Additionally, subjects are administered human recombinant IL-2 (Proleukin®, Eurocetus) by subcutaneous injection or by continuous infusion of 27 μg/kg/day on days 1-5 and 8-12. The subjects also receive a daily dose of 6×10^6 U interferon-α administered by a suitable route, such as subcutaneous injection. This treatment also includes administering 0.2 to 2.0 mg or 3-10 μg/kg of histamine injected 1, 2, or more times per day in conjunction with the administration of IL-2 and/or interferon-α.
The above procedure is repeated every 4-6 weeks until an objective regression of the tumor is observed, or until improvement in the viral infection occurs. The therapy can be continued even after a first, second, or subsequent complete remission has been observed. In patients with complete responses, the therapy can be given with longer intervals between cycles. […]

Data set [2] deals with peripheral blood lymphocytes. The data set can be described thus: Oxidant-induced cell death in lymphocytes incubated with mononuclear phagocytes or hydrogen peroxide, flow cytometry. Type of data set: cell-based, human. To be noted: for protection of lymphocytes from phagocyte-induced cell death (FIG. 1): overnight with autologous mononuclear phagocytes, catalase 200 U/ml, histamine, DPI 3 μM, p<0.001, n=4; for protection of lymphocytes from phagocyte- or hydrogen peroxide-induced (oxidant/ROS-induced) cell death / apoptosis: pretreatment, PJ34 250 nM, DPQ 3 μM, Z-VAD.fmk 100 μM, overnight incubation with phagocytes or H2O2. On the procedure: Peripheral venous blood was obtained as freshly prepared leukopacks from healthy blood donors at the Blood Centre, Sahlgren's Hospital, Göteborg, Sweden, to study the activation characteristics of cytotoxic lymphocytes in the presence and absence of MO, and ROM inhibitors. The blood (65 ml) was mixed with 92.5 ml Iscove's medium, 35 ml 6% Dextran (Kabi Pharmacia, Stockholm, Sweden) and 7.5 ml acid citrate dextrose (ACD) (Baxter, Deerfield, Ill.). After incubation for 15 minutes at room temperature, the supernatant was carefully layered onto Ficoll-Hypaque (Lymphoprep, Myegaard, Norway). Mononuclear cells (MNC) were collected at the interface after centrifugation at 380 g for 15 minutes at room temperature, washed twice in PBS and resuspended in Iscove's medium supplemented with 10% human AB^+ serum. During all further separation of cells, the cell suspensions were kept in siliconized test tubes (Vacuette, Greiner, Stockholm).
The MNC were further separated into lymphocyte and monocyte (MO) populations using the counter-current centrifugal elutriation (CCE) technique originally described by Yasaka and co-workers (Yasaka, T. et al., J. Immunol., 127:1515) with modifications as described in Hansson, M., et al. (J. Immunol., 156: 42 (1996); hereby incorporated by reference). Briefly, the sedimentation rate of cells in a spinning rotor was balanced by a counter-directed flow through the chamber. By slowly increasing the flow rate, fractions of cells of well-defined sizes were collected. The MNC were resuspended in elutration buffer containing 0.5% BSA (ICN Biomedicals Inc., Aurora, Ohio) and 0.1% EDTA (VWR, Göteborg, Sweden) in buffered NaCl and fed into a Beckman J2-21 ultracentrifuge with a JE-6B rotor (Bechman Coulter Inc., Fullerton, Calif.) at 2100 rpm. A fraction with >90% MO was obtained at a flow rate of 19 ml/min. A lymphocyte fraction enriched for NK-cells (CD3^−/56^+ phenotype) and T-cells (CD3^+/56^−) was recovered at flow rates of 14-15 ml/min. This fraction contained <3% MO and consisted of CD3ε^−/56^+ NK-cells (45-50%), CD3ε^+/56^− T-cells (35-40%), CD3ε^−/56^− cells (5-10%), and CD3ε^+/56^+ cells (1-5%), as judged by flow cytometry. In some experiments, dynabeads (Dynal A/S, Oslo, Norway) coated with anti-CD56 were used to obtain purified lymphocyte preparations of T-cells, as described in detail by Hansson, M., et al., incorporated above.
Briefly, lymphocytes were incubated overnight with autologous mononuclear phagocytes in the presence or absence of catalase (200 U/ml), histamine ([…]) or DPI (3 μM).
Briefly, lymphocytes, pretreated with PJ34 (250 ηM), Z-VAD.fmk (100 μM) or medium, were subjected to mononuclear phagocytes at different Mo/Ly ratios (FIG. 5A) or to different concentrations of H2O2 (FIG. 5C). FIGS. 5A-5D illustrate that PJ34 protected lymphocytes from cell death induced by phagocytes ([…], ratio 1:1, p<0.05) and hydrogen peroxide (FIGS. 5C and 5D, 250 μM, p<0.001).
In general terms: A flow cytometer gives signals particle by particle.

A further data set concerns tumoricidal lymphocytes. The data set can be described thus: Tumor-killing function of tumoricidal lymphocytes after phagocyte or hydrogen peroxide exposure. It counts as cell-based, human. To be noted: PJ34 250 nM or DPQ 3 μM. An excerpt: As detailed above, a significant part of the dysfunction of tumor-killing lymphocytes at the site of malignant tumor growth has been attributed to inhibitory signals from tumor-infiltrating or tumor-adjacent phagocytes. […] However, the molecular events underlying phagocyte-induced lymphocyte apoptosis are not fully understood. The role of two enzyme systems responsible for induction and execution of apoptosis, caspases and the poly(ADP-ribose) polymerase (PARP) were investigated. Human tumoricidal lymphocytes were incubated with autologous mononuclear phagocytes or with exogenously added hydrogen peroxide, and assayed for apoptotic features at various time points. […] It is therefore believed that PARP-dependent cell death may be critically involved in phagocyte-dependent, oxygen free radical-induced cell death.

A further data set concerns NK cells. To be noted: H2-receptor antagonist or agonist; cited from earlier work.

“Also recorded” adds a separate entry of the source.

Turning to `NC(=O)c1cccc(N)c1` [3-aminobenzamide], the “clinical outcome in AML” value in the data set on AML is reported as “reduction in cancer”.
On to `NCc1ccc2[nH]c3c4c(c5c(c3c2c1)C(=O)NC5=O)CCC4` [CEP-6800], for which the “viral infection or tumor mass” value in data set [1] is on record as “reduction in viral infection or tumor mass”.
`c1ccc([I+]c2ccccc2)cc1` [DPI, diphenyliodonium]: the “protection of lymphocytes from phagocyte-induced cell death (FIG. 1)” value in data set [2] is “fully protected”.
For the molecule `O=C1NCCc2c(OCCCCN3CCCCC3)cccc21` [DPQ], the “restoration of tumor-killing function” value in the data set on tumoricidal lymphocytes was “restored”. Moreover, in data set [2], the “protection of lymphocytes from phagocyte- or hydrogen peroxide-induced (oxidant/ROS-induced) cell death / apoptosis” value is “completely protected; also recorded: resisted the oxidative stress”.
On to `CN(C)CCCSC(=N)N` [dimaprit], for which the “effect of histamine on granulocyte mediated suppression of antibody dependent cytotoxicity of NK cells” value in the data set with NK cells is recorded as “mimicked”.
Regarding `CNC(=C[N+](=O)[O-])NCCSCc1ccc(CN(C)C)o1` [ranitidine], the “effect of histamine on granulocyte mediated suppression of antibody dependent cytotoxicity of NK cells” value in the data set on NK cells was “blocked”.
In the case of Q-VD.OPh, in data set [2], the “protection of lymphocytes from phagocyte- or hydrogen peroxide-induced (oxidant/ROS-induced) cell death / apoptosis” value is “failed to protect”.

B1: catalase: H2O2 scavenger (Boehringer-Mannheim) (protein, UniProt P00432 2-527, looked up)
Catalase: ADNRDPASDQMKHWKEQRAAQKPDVLTTGGGNPVGDKLNSLTVGPRGPLLVQDVVFTDEMAHFDRERIPERVVHAKGAGAFGYFEVTHDITRYSKAKVFEHIGKRTPIAVRFSTVAGESGSADTVRDPRGFAVKFYTEDGNWDLVGNNTPIFFIRDALLFPSFIHSQKRNPQTHLKDPDMVWDFWSLRPESLHQVSFLFSDRGIPDGHRHMNGYGSHTFKLVNANGEAVYCKFHYKTDQGIKNLSVEDAARLAHEDPDYGLRDLFNAIATGNYPSWTLYIQVMTFSEAEIFPFNPFDLTKVWPHGDYPLIPVGKLVLNRNPVNYFAEVEQLAFDPSNMPPGIEPSPDKMLQGRLFAYPDTHRHRLGPNYLQIPVNCPYRARVANYQRDGPMCMMDNQGGAPNYYPNSFSAPEHQPSALEHRTHFSGDVQRFNSANDDNVTQVRTFYLKVLNEEQRKRLCENIAGHLKDAQLFIQKKAVKNFSDVHPEYGSRIQALLDKYNEEKPKNAVHTYVQHGSHLSAREKANL
For the molecule B1, in data set [2], the “protection of lymphocytes from phagocyte-induced cell death (FIG. 1)” value is “fully protected”.

The values are drawn from patent US20060079510A1, “Use of PARP-1 inhibitors for protecting tumorcidal lymphocytes from apoptosis” (priority 2004, published 2006).
